Molecular target: T1, IFNγ receptor subunit 1 (IFNγR1) (Mus musculus, UniProt P15261)
T1 construct: gene Ifngr1; synthetic Wt IFNγR1 peptide, CRAC motif, residues 269 to 280 ([…])
Assay: SPR (BIAcore […], L1 chip) of peptide over immobilized phosphatidylcholine/cholesterol liposomes
Format: binding

Structure (SMILES): CC(C)CCC[C@@H](C)[C@H]1CC[C@H]2[C@@H]3CC=C4C[C@@H](O)CC[C@]4(C)[C@H]3CC[C@]12C [cholesterol]
- Kd: 4.27 nM

Reference: publication PMC3169561, “Restoration of IFNγR Subunit Assembly, IFNγ Signaling and Parasite Clearance in Leishmania donovani Infected Macrophages: Role of Membrane Cholesterol” (PLoS Pathogens, 2011)
